Values joined by “and” are separate entries in the source; they are usually repeats but may differ in a detail not shown here. Equal values may be shown once. Read-outs that look alike come from different tables or passages of the source.
Experiments:
[1] = tested on: SH-SY5Y human neuroblastoma cells; assay: Neuroprotection: cell viability (XTT metabolic activity) after OGD (4 h) followed by OGR (24 h) (IR); assay type: cell-based; settings: OGD 4 h + OGR 24 h (IR); for Emax: 24 h, read-out: Maximal Activity mean±SEM (neuroprotection); for EC50: compounds 0.01 μM to 1 mM, read-out: Neuroprotection EC50 ± SEM
Description: Cultures of human neuroblastoma cells from line SH-SY5Y were performed in flasks containing Dulbecco’s: Ham’s F12, 1:1 [v/v] composed of 0.5 mM sodium pyruvate, 2.5 mM GlutaMAX™; GIBCO, Life Technologies, Madrid (Spain), 3.15 mg/mL glucose, 1% Antibiotic-Antimycotic (100 ui/mL penicillin, […] streptomycin, and 0.25 mg amphotericin B), 1% Gentamicin 15 mg/mL (Sigma-Aldrich, Madrid, Spain) and 10% Fetal Calf Serum (FCS) (Gibco; Life Technologies, Madrid, Spain) as as described. For each experiment, neuroblastoma cells were digested partially with 0.25% trypsin-EDTA and seeded in plates of 96 or 48 wells with a density of 0.5–1 or 2–2.5 × 10^5 cells/well, respectively, depending on the assay. At 80% confluence of the seeded cells, medium was renewed adding 0.1–1000 µM of the compounds tested.
(§1) To induce experimental ischemia, and the sub-consequent cellular damage, the neuroblastoma cultures underwent OGD for 3–4 h, maintained in a glucose-free Dulbecco’s medium inside an anaerobic chamber in the presence of a gas mixture of 95% N2/5% CO2 and humidified at 37 °C at a constant pressure of 0.15 bar. After the OGD period (4 h), medium was substituted by oxygenated 10% FCS-containing medium, and cells were incubated in conditions of normoxia for 24 h to recovery (R24h). The compounds used in the neuroprotection studies: nitrones 9a–i, α-phenyl-N-tert-butyl nitrone (PBN) and N-acetyl-L-cysteine (NAC) (0.01 μM−1000 µM), were added at the beginning of R24h as described. Concurrently, controls in the absence of the OGD procedure were performed by maintaining these cells with Dulbecco’s medium including glucose for 3–4 h in an incubator in conditions of normoxia during the OGD period; thereafter, the medium was changed, and the cells (in the presence or absence of the different study compounds) were returned to the incubator for 24 h of recovery, as described. In addition, experiments including the same amounts of vehicle (final concentration < 1% dimethyl sulfoxide) were performed, serving as controls. The effects of nitrones 9a–g were analyzed three-five times independently using different culture batches, and each experiment was carried out in triplicate.
Cell viability measurements were carried out in human neuroblastoma cells SHSY5Y using 96-well culture plates, containing about 0.5–1 × 10^5 cells/well, after the OGD-R24h or control treatment including 0.01–1000 µM of the different testing compounds (nitrones 9a–g, PBN, and NAC), utilizing the Cell Proliferation Kit II (XTT), Sigma Aldrich, Madrid, Spain, which determines the culture’s metabolic capacity, as described in [21, 22]. XTT solution (0.3 mg/mL final concentration) was added to the seeded cells, incubated for 2 h at 37 °C with 5% CO2 and 95% air (v/v), and a spectrophotometer reader (Biotek Power-Wave XS microplate-reader (BioTek Instruments, Madrid, Spain) was used to register the absorbance at 450 nm (reference 650 nm) of the soluble formazan product generated. 100% viability was set by control normoxic cells treated with medium only, and control cells were added 0.001–1% DMSO in every assay.

[2] = tested on: SH-SY5Y human neuroblastoma cells; assay: Anti-necrotic effect: LDH release after OGD (4 h) and 24 h OGR (IR); assay type: cell-based; settings: OGD 4 h + 24 h OGR (IR); for IC50: compounds 0.1 μM to 1 mM, read-out: LDH Release Inhibition IC50 ±SEM; for Emax: read-out: Maximal Inhibition Mean±SEM (LDH release)
Description: as §1
Anti-necrotic cell activity was evaluated by culturing SHSY5Y cells in 48-well dishes, in a density of 2 × 10^5 cells/well and treating them as controls or under the OGD-R24h procedure, adding the testing compounds at 0.01–1000 µM (see point 4.2.2.). Media of every well were collected in Eppendorf tubes properly labelled and stored at −20 °C until measurement (samples would be needed to measure extracellular NADH). Afterwards, each well was recharged with a 0.1 M Phosphate Buffer with 0.5% Triton X-100, pH 7.5, in order to scratch the cells from the bottom of the well. After a 13.000 rpm centrifugation, the soluble fractions are collected and labelled (samples would be essential to measure intracellular NADH). Finally, LDH activity was quantified as the degree of absorbance declined at 340, indicating the oxidation of NADH to NAD+ as described. Results are expressed as the LDH activity of the extracellular medium referred to the total LDH activity after cell lysis.

[3] = ABTS radical cation decolorization assay; settings: tested at 100 µM
Description: Approximately 10 µL of the tested compounds in DMSO (100 µM final concentration) were mixed with 200 µL of ABTS∙^+ (100 mM) and 790 µL absolute ethanol. The absorbance value was recorded 1 min after mixing at 734 nm and compared to Trolox.

[4] = tested on: human neuroblastoma SH-SY5Y cells; assay: Superoxide radical production (DHE fluorescence) after OGD and 3 h OGR (IR); assay type: cell-based; settings: OGD + 3 h OGR (IR); for EC50: compounds 0.1 to 1000 μM, read-out: Antioxidant Activity EC50 ± SEM (superoxide production); for Emax: read-out: Maximal Activity mean±SEM (antioxidant)
Description: A density of 2–2.5 × 10^5 SHSY5Y cells/well was used to seed in 48-well plates to quantify superioxide anion formation. Firstly, cultured cells were exposed to OGD treatment for 3–4 h or maintained in normoxic conditions (controls). Thereafter, medium was replaced with oxygenated Dulbecco’s: Ham’s F12 medium with glucose, 1% Antibiotic-Antimycotic, 1% Gentamicin and 10% FCS. Cells were incubated in the absence (controls) or presence of indicated concentrations of the compounds of study, at 37 °C for 3 h. […] For every condition, the linear regression of fluorescence data (expressed in arbitrary fluorescence units, AFU) was calculated, and the slopes (a) of the best fitting lines (y = ax) were considered as an index of superoxide production, as described previously.

EC50 ([1]; Homo sapiens)	EC50 ([4]; Homo sapiens)	EC50 [1]	EC50 [4]	SMILES	Emax ([1]; Homo sapiens)	IC50 ([2]; Homo sapiens)	Emax ([2]; Homo sapiens)	ABTS+ (%) [3]	Emax ([4]; Homo sapiens)	Maximal Activity mean±SEM (neuroprotection) [1]	Maximal Inhibition Mean±SEM (LDH release) [2]	IC50 [2]	Maximal Activity mean±SEM (antioxidant) [4]
193 ± 36.7 µM	0.72 ± 0.16 µM			Cc1cn(C/C=[N+](/C)[O-])c(=O)[nH]c1=O [9b]	123 ± 8.46%	23.2 ± 2.64 µM	122 ± 1.84%	14%	100 ± 2.26%				
29.2 ± 7.72 µM	46.4 ± 9.49 µM			C/[N+]([O-])=C/Cn1cc(Br)c(=O)[nH]c1=O [9d]	125 ± 8.05%	50.2 ± 8.87 µM	120 ± 4.62%	12%	114 ± 7.72%				
165 ± 26.1 µM	12.9 ± 1.43 µM			C/[N+]([O-])=C/Cn1cc(Cl)c(=O)[nH]c1=O [9e]	99.7 ± 5.98%	12 ± 1.71 µM	98.6 ± 2.24%	19%	89.3 ± 5.33%				
1.55 ± 0.15 µM	1.4 ± 0.66 µM			C/[N+]([O-])=C/Cn1cnc2c(N)ncnc21 [9f]		3.93 ± 0.05 µM	129 ± 2.26%	6%	106 ± 9.39%				
23.6 ± 4.17 µM	1.12 ± 0.13 µM			C/[N+]([O-])=C/Cn1cc(Br)c(=O)n(C/C=[N+](/C)[O-])c1=O [9i]	110 ± 3.97%	43.1 ± 6.5 µM	121 ± 5.82%	75%	107 ± 2.72%				
		33.5 µM and ~35 µM	5.86 ± 0.63 µM	CC(C)(C)[N+]([O-])=Cc1ccccc1 [PBN, α-phenyl-N-tert-butylnitrone, reference compound]				5%		96.93 ±6.97% and ≈ 96%	77.51 ±5.75% and ≈ 75%	5.28 µM and ~5 µM	93.57±2.94%

Source: PMC8955307, “Nucleobase-Derived Nitrones: Synthesis and Antioxidant and Neuroprotective Activities in an In Vitro Model of Ischemia–Reperfusion” (International Journal of Molecular Sciences, 2022)
